Test results: patent US12097260B2, “Temperature-responsive degradable hydrogels” (priority 2017, dated 2024)
Where two headings read alike, the source gives them in different places.

Columns and labels:
[1] = Effect of comonomers on LCST (slope of LCST vs. mol %); type: physicochemical; conditions: comonomer in NIPAAm-based temperature-responsive polymers
Description: The effect on LCST of a comonomer can be determined by preparing polymers with varying content and evaluating the slope of a line of best fit for the plot of LCST vs. mol % X, where X is the comonomer.

S. aureus ATCC 49230 = assay: Rabbit infection treatment model; type: in vivo; conditions: comparator treatments
Experimental: The present studies utilized the same rabbit infection treatment model initially adapted from Nelson and colleagues delivering tobramycin mixed into the hydrogel by the methods described herein. Twenty rabbits were infected with S. aureus ATCC 49230 and six rabbits were infected with MRSA ATCC BAA-1556. The polymer used in the hydrogels was PNJ18-DBLA with the composition reported in Table 34, and the hydrogel contained 3.14 wt % tobramycin as an active agent which was dissolved separately at the time of use and mixed with polymer solution by end-to-end syringe mixing.

S. aureus (BAA 1680) = assay: Minimum biofilm eradication concentration (MBEC) on rabbit muscle; type: cell-based
Experimental: (§1) MBEC of biofilms grown on rabbit muscle specimens in vitro was determined. The goal of the study was to compare the relative spectrum of antimicrobial activity of TOB and VANC either alone or in combination. […] This method also allows for controlled culture conditions and quantitative data without confounding phenomena that would be present in an animal model of infection such as variability throughout a single infection, host immune function, and release/transport of antimicrobials.
(§2) Aseptically obtained rabbit muscle samples (˜40 mg) were incubated in bacterial suspension for 3 days to allow biofilm growth. Tissue specimens were then rinsed and placed in separate wells of a 96-well plate. Medium containing various concentrations of antimicrobials (4000, 2000, 1000, 750, 500, 250, 125, 64, 32, 16, and 0 μg/mL) were then added to the wells containing the contaminated tissue samples. Plates were then incubated for either 6, 24, or 72 hours at 37° C. Following this “exposure time,” the antimicrobial-containing medium was removed and specimens were rinsed with antimicrobial-free growth medium at least 4 times to remove any residual antimicrobials. Then the specimens were subcultured in separate test tubes containing antimicrobial-free medium and incubated at 37° C.
(§3) In each series of specimens for a given strain, antimicrobial treatment, and exposure time, the lowest antimicrobial concentration showing no growth after 21 day subculture was measured to be the MBEC. If all subcultures were positive, the MBEC was determined to be >4000 μg/mL. Selected positive subcultures were confirmed by culture identification at a third-party diagnostic laboratory.

E. coli (25922) = assay: as above; type: cell-based
Experimental: as §1, §2, §3

S. aureus (BAA 1556) = assay: as above; type: cell-based
Experimental: as §1, §2, §3

S. epidermidis (700583) = assay: as above; type: cell-based
Experimental: as §1, §2, §3

S. aureus (49230) = assay: as above; type: cell-based
Experimental: as §1, §2, §3

P. aeruginosa (27853) = assay: as above; type: cell-based
Experimental: as §1, §2, §3

S. epidermidis (35984) = assay: as above; type: cell-based
Experimental: as §1, §2, §3

E. faecalis (29212) = assay: as above; type: cell-based
Experimental: as §1, §2, §3

S. epidermidis (29886) = assay: as above; type: cell-based
Experimental: as §1, §2, §3

Solubility in water = type: physicochemical
[2] = test system: Ten laboratory standard bacterial strains; assay: MBEC summary over the bacterial strains tested; type: cell-based; conditions: for Strains with MBEC>1,000 μg/mL: 24 and 72 hr exposure
Experimental: Ten laboratory standard bacterial strains intended to represent the spectrum of pathogens found in surgical site infections were evaluated: 3 S. aureus (2 methicillin-resistant, 1 methicillin-sensitive), 4 S. epidermidis (1 methicillin-resistant, 3 methicillin-sensitive), K Faecalis, P. Aeruginosa, and E. Coli (ATCC #BAA-1556, BAA-1680, 49230, 35984, 29886, 700583, 14990, 29212, 27853, and 25922). Both MRSA strains tested (BAA-1556, BAA-1680) are susceptible or intermediately susceptible to both TOB and VANC. S. epidermidis (35984), P. aeruginosa (27853), and E. faecalis (29212) are tobramycin-resistant. None of the gram-positive organisms tested are resistant to vancomycin. Vancomycin is not effective against gram-negative bacteria (E. coli, P. aeruginosa).
as §3

[3] = Degradation vs. incubation temperature in 0.2 M phosphate buffer (accelerated stability method); type: physicochemical
Experimental: A high concentration of phosphate ions is known to decrease the LCST, an effect known as “salting-out.” Thus, the LCST values measured in this study are lower than for the same polymer in PBS. The polymer was dissolved at 3 mg/mL in 0.2 M phosphate buffer (pH 7.4). […] The buffer was not replaced. This was done to maintain a controlled experiment between temperatures because the samples at low temperatures contained polymer solution, preventing exchange of the buffer. Tubes contained transparent solution at 4° C. and slightly turbid solution at 22° C. Samples incubated at 40-80° C. formed opaque, milky solutions immediately upon heating. After overnight storage, samples incubated at 40-80° C. contained a separated solid precipitate phase at the bottom of the tube, and transparent overlying buffer. […] The LCST of each sample was determined using a cloud point method. […] At each temperature, the absorbance of the solution was measured using a spectrophotometer (450 nm). The temperature at which the absorbance was half of the maximum value was recorded as the LCST. […] For temperatures at which 30° C. was not measured, linear interpolation between the nearest two data points was used to calculate the time at which LCST reached 30° C. […] A separate study evaluated the polymer PNJ1.3-DB20 using the same methods with incubation at 4, 37, 60, and 80° C. in 0.2 M phosphate buffer (pH 7.4). […]

[4] = Stability of hydrophobic comonomers in 95° C. stress conditions, pH 4, titration; type: physicochemical; conditions: up to 14 days at 95° C.
Experimental: Stability of additional monomers was also evaluated in 95° C. stress conditions as hydrophobic monomers with the function of decreasing the LCST. […] The polymers were dissolved at 50 mg/mL in 0.2 M sodium acetate-acetic acid buffer (pH 4). Separate samples of 5 mL each were incubated at 95° C. for 0, 2, 4, 7, or 14 days to evaluate stability of the hydrophobic monomers, as NIPAAm and JAAm are known to be relatively stable in these conditions. After the designated time, samples were cooled and stirred to re-dissolve the polymer, and the solution was dialyzed to remove salts and any degradants. Then 100 mg of the recovered material for each sample was dissolved in 10 mL deionized water and evaluated for acid content by titration using phenolphthalein as the indicator and 1 mM NaOH as the titrant. The titration data were corrected against a control sample which contained only deionized water, as about 0.9 mL of titrant in 10 mL was required for the indicator to change color.

[5] = dog, in vivo; cited from earlier work
[6] = cited from earlier work

## C=CC(=O)OCCCC [Butyl acrylate, butyl acrylate]
[1]
  Effect on LCST: −0.44 ° C./mol %

## NC[C@H]1O[C@H](O[C@H]2[C@H](O)[C@@H](O[C@H]3O[C@H](CO)[C@@H](O)[C@H](N)[C@H]3O)[C@H](N)C[C@@H]2N)[C@H](N)C[C@@H]1O [TOB, tobramycin]
S. aureus ATCC 49230
  Rabbits that remained infected: 4/7
S. aureus (BAA 1680); 6 hr exposure
  MBEC: >4000 µg/mL
S. aureus (BAA 1680); 24 hr exposure
  MBEC: >4000 µg/mL
S. aureus (BAA 1680); 72 hr exposure
  MBEC: 4000 µg/mL
E. coli (25922); 6 hr exposure
  MBEC: 250 µg/mL
E. coli (25922); 24 hr exposure
  MBEC: 62 µg/mL
E. coli (25922); 72 hr exposure
  MBEC: 62 µg/mL
S. aureus (BAA 1556); 6 hr exposure
  MBEC: 2000 µg/mL
S. aureus (BAA 1556); 24 hr exposure
  MBEC: 375 µg/mL
S. aureus (BAA 1556); 72 hr exposure
  MBEC: 250 µg/mL
S. epidermidis (700583); 6 hr exposure
  MBEC: 125 µg/mL
S. epidermidis (700583); 24 hr exposure
  MBEC: 250 µg/mL
S. epidermidis (700583); 72 hr exposure
  MBEC: 375 µg/mL
S. aureus (49230); 6 hr exposure
  MBEC: 500 µg/mL
S. aureus (49230); 24 hr exposure
  MBEC: 375 µg/mL
S. aureus (49230); 72 hr exposure
  MBEC: 250 µg/mL
P. aeruginosa (27853); 6 hr exposure
  MBEC: 2000 µg/mL
P. aeruginosa (27853); 24 hr exposure
  MBEC: 375 µg/mL
P. aeruginosa (27853); 72 hr exposure
  MBEC: 62 µg/mL
S. epidermidis (35984); 6 hr exposure
  MBEC: >4000 µg/mL
S. epidermidis (35984); 24 hr exposure
  MBEC: >4000 µg/mL
S. epidermidis (35984); 72 hr exposure
  MBEC: >4000 µg/mL
E. faecalis (29212); 6 hr exposure
  MBEC: >4000 µg/mL
E. faecalis (29212); 24 hr exposure
  MBEC: >4000 µg/mL
E. faecalis (29212); 72 hr exposure
  MBEC: >4000 µg/mL
S. epidermidis (29886); 6 hr exposure
  MBEC: 125 µg/mL
S. epidermidis (29886); 24 hr exposure
  MBEC: 125 µg/mL
S. epidermidis (29886); 72 hr exposure
  MBEC: 31 µg/mL
Solubility in water; over a range of pH values
  Solubility in aqueous solutions: > 30 wt %
[2]
  Strains with MBEC>1,000 μg/mL: 3 strains
[2]; 6 hr exposure
  # Strains w/ MBEC ≥1000 μg/mL: 5/10
[2]; 24 hr exposure
  # Strains w/ MBEC ≥1000 μg/mL: 3/10
  Max. MBEC: >4000 µg/mL
  Median MBEC: 250 µg/mL
[2]; 72 hr exposure
  # Strains w/ MBEC ≥1000 μg/mL: 3/10

## C=CC(=O)NC(C)(C)C [Tert-butyl acrylamide, tert-butyl acrylamide]
[1]
  Effect on LCST: −0.41 ° C./mol %

## CN[C@H](CC(C)C)C(=O)N[C@H]1C(=O)N[C@@H](CC(N)=O)C(=O)N[C@H]2C(=O)N[C@H]3C(=O)N[C@H](C(=O)N[C@H](C(=O)O)c4cc(O)cc(O)c4-c4cc3ccc4O)[C@H](O)c3ccc(c(Cl)c3)Oc3cc2cc(c3O[C@@H]2O[C@H](CO)[C@@H](O)[C@H](O)[C@H]2O[C@H]2C[C@](C)(N)[C@H](O)[C@H](C)O2)Oc2ccc(cc2Cl)[C@H]1O [VANC, vancomycin]
S. aureus (BAA 1680); 6 hr exposure
  MBEC: 4000 µg/mL
S. aureus (BAA 1680); 24 hr exposure
  MBEC: 2000 µg/mL
S. aureus (BAA 1680); 72 hr exposure
  MBEC: 2000 µg/mL
E. coli (25922); 6 hr exposure
  MBEC: >4000 µg/mL
E. coli (25922); 24 hr exposure
  MBEC: >4000 µg/mL
E. coli (25922); 72 hr exposure
  MBEC: >4000 µg/mL
S. aureus (BAA 1556); 6 hr exposure
  MBEC: 4000 µg/mL
S. aureus (BAA 1556); 24 hr exposure
  MBEC: 2000 µg/mL
S. aureus (BAA 1556); 72 hr exposure
  MBEC: 1000 µg/mL
S. epidermidis (700583); 6 hr exposure
  MBEC: 1000 µg/mL
S. epidermidis (700583); 24 hr exposure
  MBEC: 1000 µg/mL
S. epidermidis (700583); 72 hr exposure
  MBEC: 1000 µg/mL
S. aureus (49230); 6 hr exposure
  MBEC: >4000 µg/mL
S. aureus (49230); 24 hr exposure
  MBEC: >4000 µg/mL
S. aureus (49230); 72 hr exposure
  MBEC: 2000 µg/mL
P. aeruginosa (27853); 6 hr exposure
  MBEC: >4000 µg/mL
P. aeruginosa (27853); 24 hr exposure
  MBEC: >4000 µg/mL
P. aeruginosa (27853); 72 hr exposure
  MBEC: >4000 µg/mL
S. epidermidis (35984); 6 hr exposure
  MBEC: 4000 µg/mL
S. epidermidis (35984); 24 hr exposure
  MBEC: 750 µg/mL
S. epidermidis (35984); 72 hr exposure
  MBEC: 375 µg/mL
E. faecalis (29212); 6 hr exposure
  MBEC: 1000 µg/mL
E. faecalis (29212); 24 hr exposure
  MBEC: 375 µg/mL
E. faecalis (29212); 72 hr exposure
  MBEC: 250 µg/mL
S. epidermidis (29886); 6 hr exposure
  MBEC: 375 µg/mL
S. epidermidis (29886); 24 hr exposure
  MBEC: 375 µg/mL
S. epidermidis (29886); 72 hr exposure
  MBEC: 375 µg/mL
Solubility in water; about pH 3
  Maximum solubility: ~19 wt %
Solubility in water; pH 4-7.4
  Solubility: ≤ 2 wt %
[2]
  Strains with MBEC>1,000 μg/mL: 6 strains
[2]; 6 hr exposure
  # Strains w/ MBEC ≥1000 μg/mL: 8/10
[2]; 24 hr exposure
  # Strains w/ MBEC ≥1000 μg/mL: 6/10
  Max. MBEC: >4000 µg/mL
  Median MBEC: 750 µg/mL
[2]; 72 hr exposure
  # Strains w/ MBEC ≥1000 μg/mL: 6/10

## C=CC(=O)OC1C(=O)OCC1(C)C (stereo not drawn) [DBLA, dimethyl butyrolactone acrylate]
[1]
  Effect on LCST: −1.8 ° C./mol %

## poly(NIPAAm-co-DBLA-co-JAAm) [PNJ18-DBLA]
[3]
  Degradation at 22° C., times faster than at 4° C.: 3.63 times
  Degradation at 80° C., times faster than at 40° C.: 11.67 times

## C=CC(=O)OC(C)(C)C [Tert-butyl acrylate, tert-butyl acrylate]
[4]
  Initial structure retained: poorest stability
[1]
  Effect on LCST: −0.69 ° C./mol %

## C=CC(=O)NC1C(=O)OCC1(C)C (stereo not drawn) [DBLAAm, dimethyl butyrolactone acrylamide]
[1]
  Effect on LCST: −0.51 ° C./mol %

## C=C(C)C(=O)OCCCC [BMA, butyl methacrylate]
[1]
  Effect on LCST: −0.62 ° C./mol %

## C=CC(=O)O [Acrylic acid]
[1]
  Effect on LCST: +2.6 ° C./mol %

## CCCCN1CCCCC1C(=O)Nc1c(C)cccc1C (stereo not drawn) [bupivacaine]
[5]
  Toxic systemic levels: 1,000-2,000 ng/mL
[6]
  Water solubility: approximately 200 μg/mL
[6]; higher pH above 7.64
  Water solubility: less than 0.1 wt %
[6]; pH≈6
  Water solubility: 2-5 wt %
